According to publication PMC7162861, “Synthesis, cytotoxicity, pharmacokinetic profile, binding with DNA and BSA of new imidazo[1,2-a]pyrazine-benzo[d]imidazol-5-yl hybrids” (Scientific Reports, 2020):

Tests used:
[1] = system: CCRF-CEM; experiment: NCI cytotoxicity screen, Leukemia panel; type: cell-based; conditions: Homo sapiens, single dose 10 µM, negative = lethal, read-out: Percent growth inhibition
Protocol: (§1) Cytotoxicity was performed at National Cancer Institute (NCI), Bethesda, USA as per their protocols.

[2] = system: HL-60(TB); experiment: NCI cytotoxicity screen, Leukemia panel; type: cell-based; conditions: Homo sapiens, HL-60, HL-60(TB); single dose 10 µM; negative = lethal; read-out: Percent growth inhibition
Protocol: as §1

[3] = system: K-562; experiment: NCI cytotoxicity screen, Leukemia panel; type: cell-based; conditions: Homo sapiens, K562; K-562; single dose 10 µM; negative = lethal; read-out: Percent growth inhibition
Protocol: as §1

[4] = system: MOLT-4; experiment: NCI cytotoxicity screen, Leukemia panel; type: cell-based; conditions: Homo sapiens, MOLT-4, MOLT-4; single dose 10 µM; negative = lethal; read-out: Percent growth inhibition
Protocol: as §1

[5] = system: RPMI-8226; experiment: NCI cytotoxicity screen, Leukemia panel; type: cell-based; conditions: Homo sapiens; RPMI-8226; single dose 10 µM; negative = lethal; read-out: Percent growth inhibition
Protocol: as §1

[6] = system: SR; experiment: NCI cytotoxicity screen, Leukemia panel; type: cell-based; conditions: Homo sapiens, single dose 10 µM, negative = lethal, read-out: Percent growth inhibition
Protocol: as §1

[7] = system: SF-268; experiment: NCI cytotoxicity screen, CNS Cancer panel; type: cell-based; conditions: Homo sapiens, single dose 10 µM, negative = lethal, read-out: Percent growth inhibition
Protocol: as §1

[8] = system: SF-295; experiment: NCI cytotoxicity screen, CNS Cancer panel; type: cell-based; conditions: Homo sapiens, single dose 10 µM, negative = lethal, read-out: Percent growth inhibition
Protocol: as §1

[9] = system: SF-539; experiment: NCI cytotoxicity screen, CNS Cancer panel; type: cell-based; conditions: Homo sapiens, single dose 10 µM, negative = lethal, read-out: Percent growth inhibition
Protocol: as §1

[10] = system: SNB-19; experiment: NCI cytotoxicity screen, CNS Cancer panel; type: cell-based; conditions: Homo sapiens; SNB-19; single dose 10 µM; negative = lethal; read-out: Percent growth inhibition
Protocol: as §1

[11] = system: SNB-75; experiment: NCI cytotoxicity screen, CNS Cancer panel; type: cell-based; conditions: Homo sapiens, single dose 10 µM, negative = lethal, read-out: Percent growth inhibition
Protocol: as §1

[12] = system: U251; experiment: NCI cytotoxicity screen, CNS Cancer panel; type: cell-based; conditions: Homo sapiens, U-251; U251; single dose 10 µM; negative = lethal; read-out: Percent growth inhibition
Protocol: as §1

[13] = system: OVCAR-4; experiment: NCI cytotoxicity screen, Ovarian Cancer panel; type: cell-based; conditions: Homo sapiens; OVCAR-4; single dose 10 µM; negative = lethal; read-out: Percent growth inhibition
Protocol: as §1

[14] = system: OVCAR-5; experiment: NCI cytotoxicity screen, Ovarian Cancer panel; type: cell-based; conditions: Homo sapiens, single dose 10 µM, negative = lethal, read-out: Percent growth inhibition
Protocol: as §1

[15] = system: OVCAR-3; experiment: NCI cytotoxicity screen, Ovarian Cancer panel; type: cell-based, human; conditions: Homo sapiens; OVCAR-3; single dose 10 µM; negative = lethal; read-out: Percent growth inhibition
Protocol: as §1

[16] = system: DU-145; experiment: NCI cytotoxicity screen, Prostate Cancer panel; type: cell-based, human; conditions: Homo sapiens, single dose 10 µM, negative = lethal, read-out: Percent growth inhibition
Protocol: as §1

[17] = system: PC-3; experiment: NCI cytotoxicity screen, Prostate Cancer panel; type: cell-based, human; conditions: Homo sapiens, single dose 10 µM, negative = lethal, read-out: Percent growth inhibition
Protocol: as §1

Compound | inhibition at 10 µM [1] [%] | inhibition at 10 µM [2] [%] | inhibition at 10 µM [3] [%] | inhibition at 10 µM [4] [%] | inhibition at 10 µM [5] [%] | inhibition at 10 µM [6] [%] | inhibition at 10 µM [7] [%] | inhibition at 10 µM [8] [%] | inhibition at 10 µM [9] [%] | inhibition at 10 µM [10] [%] | inhibition at 10 µM [11] [%] | inhibition at 10 µM [12] [%] | inhibition at 10 µM [13] [%] | inhibition at 10 µM [14] [%] | inhibition at 10 µM [15] [%] | inhibition at 10 µM [16] [%] | inhibition at 10 µM [17] [%] | melting point [°C]
c1cn2cc(-c3ccsc3)nc(-c3ccc4c(c3)ncn4C3CCCCC3)c2n1 [Compound 14, 8-(1-cyclohexyl-1H-benzo[d]imidazol-5-yl)-6-(thiophen-3-yl)imidazo[1,2-a]pyrazine] | 1.1 | 2.65 | 9.6 | 14.3 | 20.8 | 23.6 | 5.01 | < 1 | 2.82 | 3.96 | < 1 | 30.2 | < 1 | < 1 | < 1 | < 1 | 17.9 | 185 to 188
Fc1ccc(-c2cn3ccnc3c(-c3ccc4c(c3)ncn4C3CCCCC3)n2)cc1 [Compound 13, 8-(1-cyclohexyl-1H-benzo[d]imidazol-5-yl)-6-(4-fluorophenyl)imidazo[1,2-a]pyrazine] | < 1 | 5.28 | 13.2 | 11.4 | 6.16 | 20.8 | 5.13 | < 1 | < 1 | < 1 | < 1 | 3.57 | < 1 | < 1 | < 1 | < 1 | 10.2 | 187 to 189
c1ccc(-c2cn3ccnc3c(-c3ccc4c(c3)ncn4C3CCCCC3)n2)cc1 [Compound 9, 8-(1-cyclohexyl-1H-benzo[d]imidazol-5-yl)-6-phenylimidazo[1,2-a]pyrazine] | 11.7 | 19.4 | 31.1 | 39.7 | 18.3 | 44.6 | 1.33 | < 1 | 2.17 | 1.72 | 5.65 | 4.44 | < 1 | < 1 | < 1 | 2.64 | 13.5 | 195 to 198
COc1ccc(-c2cn3ccnc3c(-c3ccc4c(c3)ncn4C3CCCCC3)n2)cc1 [Compound 10, 8-(1-cyclohexyl-1H-benzo[d]imidazol-5-yl)-6-(4-methoxyphenyl)imidazo[1,2-a]pyrazine] | 1.19 | 23.3 | 29.2 | 34.2 | 14.7 | 29.7 | 3.96 | 12.5 | 9.71 | 4.26 | 15.9 | 3.4 | 7.51 | 1.45 | < 1 | < 1 | 22.6 | 196 to 199
c1csc(-c2cn3ccnc3c(-c3ccc4c(c3)ncn4C3CCCCC3)n2)c1 [Compound 22, 8-(1-cyclohexyl-1H-benzo[d]imidazol-5-yl)-6-(thiophen-2-yl)imidazo[1,2-a]pyrazine] | < 1 | 0.87 | < 1 | 12.4 | < 1 | 15 | 2.5 | < 1 | < 1 | < 1 | < 1 | < 1 | < 1 | < 1 | 0.91 | 3.63 | 7.16 | 187 to 190
